In ChEMBL document CHEMBL1142919, “Naphthoindole-based analogues of tryptophan and tryptamine: synthesis and cytotoxic properties” (Bioorg Med Chem, 2007):
Calls of active or inactive are those of the source. The rule behind the calls is not given here.

What was measured:
[1] = Antiproliferative activity against human p53 deficient HCT116 p53-/- cells after 72 hrs by MTT test; format: functional, cell-based; details: HCT-116, 72 h
[2] = tested on: HCT-116; test: Antiproliferative activity against human HCT116 cells expressing wild-type p53 after 72 hrs by MTT test; format: functional, cell-based; details: HCT-116, 72 h
[3] = biological target: T1, DNA topoisomerase 1 (Homo sapiens) (UniProt P11387); test: Inhibition of topoisomerase 1 at >50 uM
T1 sequence (whole entry): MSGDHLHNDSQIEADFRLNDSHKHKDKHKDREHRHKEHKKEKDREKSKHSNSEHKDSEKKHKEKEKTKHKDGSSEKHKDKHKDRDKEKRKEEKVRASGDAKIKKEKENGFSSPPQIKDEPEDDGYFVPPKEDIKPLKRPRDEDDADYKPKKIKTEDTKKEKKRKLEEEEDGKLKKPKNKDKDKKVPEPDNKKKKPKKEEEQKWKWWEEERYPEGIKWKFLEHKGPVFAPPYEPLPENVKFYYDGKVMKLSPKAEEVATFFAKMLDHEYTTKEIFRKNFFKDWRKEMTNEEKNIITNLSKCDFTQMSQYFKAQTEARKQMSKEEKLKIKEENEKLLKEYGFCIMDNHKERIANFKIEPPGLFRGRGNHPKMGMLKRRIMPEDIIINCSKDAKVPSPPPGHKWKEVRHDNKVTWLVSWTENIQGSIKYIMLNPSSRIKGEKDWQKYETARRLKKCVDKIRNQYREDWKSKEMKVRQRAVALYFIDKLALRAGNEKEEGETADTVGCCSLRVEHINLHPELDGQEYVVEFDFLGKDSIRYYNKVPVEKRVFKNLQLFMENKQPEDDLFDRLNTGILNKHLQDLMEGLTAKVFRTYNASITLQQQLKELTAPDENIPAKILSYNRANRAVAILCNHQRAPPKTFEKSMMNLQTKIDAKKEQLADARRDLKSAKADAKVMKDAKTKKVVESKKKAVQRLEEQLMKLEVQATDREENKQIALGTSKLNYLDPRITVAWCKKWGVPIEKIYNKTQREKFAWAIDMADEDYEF

[4] = tested on: K562; test: Antiproliferative activity against human K562 cells after 72 hrs by MTT test; format: functional, cell-based; details: K562, 72 h
[5] = tested on: K562; test: Resistance index, Ratio of IC50 for human drug-resistant K562i/S9 cells to IC50 for human K562 cells; format: functional
[6] = tested on: HCT-116; test: Resistance index, Ratio of IC50 for human p53 deficient HCT116 p53-/- cells to IC50 for human wild type HCT116 cells; format: functional
[7] = Antiproliferative activity against human multidrug-resistant K562i/S9 cells expressing Pgp after 72 hrs by MTT test; format: functional, cell-based; details: K562i/S9, 72 h
[8] = biological target: T1, DNA topoisomerase 1 (Homo sapiens); test: Inhibition of topoisomerase 1 assessed as attenuation of DNA relaxation
[9] = biological target: T1, DNA topoisomerase 1 (Homo sapiens); test: Inhibition of topoisomerase 1 at 3 uM

Row | SMILES | IC50 [1] [µM] | IC50 [2] [µM] | Activity [3] | IC50 [4] [µM] | Ratio IC50 [5] | Ratio IC50 [6] | IC50 [7] [µM] | Activity [8] | Activity [9]
1 | COc1cccc2c1C(=O)c1c(O)c3c(c(O)c1C2=O)C[C@@](O)(C(=O)CO)C[C@@H]3O[C@H]1C[C@H](N)[C@H](O)[C@H](C)O1 [DOXORUBICIN] | 4.4 | 1.4 | Active | – | – | – | – | – | –
2 | CCOC(=O)C(N)Cc1c[nH]c2c(O)c3c(c(O)c12)C(=O)c1ccccc1C3=O (stereo unspecified) | – | 14.9 | – | > 50 | – | – | – | – | –
3 | NC(Cc1c[nH]c2c(O)c3c(c(O)c12)C(=O)c1ccccc1C3=O)C(=O)O (stereo unspecified) | – | > 50 | – | > 50 | – | – | – | – | –
4 | CC(N)Cc1c[nH]c2c(O)c3c(c(O)c12)C(=O)c1ccccc1C3=O (stereo unspecified) | 5 | 4.8 | – | 12 | 1.1 | 1 | 13.4 | – | –
5 | NCCc1c[nH]c2c(O)c3c(c(O)c12)C(=O)c1ccccc1C3=O | 1.2 | 1.1 | – | 4 | 0.6 | 1.1 | 2.2 | Dose-dependent effect | Active
